Source: ChEMBL document CHEMBL6177971, “Iterative Optimization Yields Stapled Peptides with Superior Pharmacokinetics and Potency for Renal Fibrosis Treatment” (J Med Chem, 2025)
Calls of active or inactive are those of the source. The calls are words filed in the database; no cut-off is given here.

Experiments:
[1] = Half life of compound; format: physicochemical
NIH3T3 [2] = experiment: Inhibition of TGF-beta1-induced EMT in mouse NIH3T3 cells assessed as decrease in fibronectin level at 10 uM incubated for 48 hrs by Western blot analysis; format: functional, cell-based
[3] = Half life in male C57BL/6J mouse at 2.8 mg/kg, iv measured for 3 to 240 mins by UHPLC-HRMS analysis; format: ADME, organism-based; settings: in vivo, time 3-240 min
[4] = Clearance in male C57BL/6J mouse at 2.8 mg/kg, iv measured for 3 to 240 mins by UHPLC-HRMS analysis; format: ADME, organism-based; settings: in vivo, time 3-240 min
[5] = MRT in male C57BL/6J mouse at 2.8 mg/kg, iv measured for 3 to 240 mins by UHPLC-HRMS analysis; format: ADME, organism-based; settings: in vivo, time 3-240 min
Albumin = Albumin (Bos taurus, UniProt P02769); experiment: Binding affinity to bovine serum albumin assessed as dissociation constant by ITC analysis; format: ADME
Albumin, sequence (P02769 whole entry): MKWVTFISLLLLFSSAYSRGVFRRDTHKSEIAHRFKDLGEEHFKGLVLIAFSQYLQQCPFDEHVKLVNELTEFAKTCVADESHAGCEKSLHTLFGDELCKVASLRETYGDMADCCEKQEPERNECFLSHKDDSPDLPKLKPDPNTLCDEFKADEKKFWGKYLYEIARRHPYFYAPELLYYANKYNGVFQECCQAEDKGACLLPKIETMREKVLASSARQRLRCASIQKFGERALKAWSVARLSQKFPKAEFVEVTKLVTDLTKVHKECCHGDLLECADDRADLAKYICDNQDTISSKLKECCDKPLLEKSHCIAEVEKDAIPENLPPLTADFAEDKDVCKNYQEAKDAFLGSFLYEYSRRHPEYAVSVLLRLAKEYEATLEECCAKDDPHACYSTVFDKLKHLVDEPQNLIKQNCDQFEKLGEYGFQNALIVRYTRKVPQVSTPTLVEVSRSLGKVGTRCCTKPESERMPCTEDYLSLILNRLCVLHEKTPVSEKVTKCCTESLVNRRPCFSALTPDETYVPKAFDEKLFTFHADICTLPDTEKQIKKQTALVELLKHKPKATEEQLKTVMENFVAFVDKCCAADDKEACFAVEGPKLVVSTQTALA

NIH3T3 [6] = experiment: Inhibition of myofibroblast activation in TGF-beta1-induced EMT in mouse NIH3T3 cells assessed as decrease in alpha-SMA level incubated for 48 hrs by Western blot analysis; format: functional, cell-based; settings: dose 1-10 µM
NIH3T3 [7] = experiment: Inhibition of myofibroblast activation in TGF-beta1-induced EMT in mouse NIH3T3 cells assessed as decrease in collagen I level at 1 to 2 uM incubated for 48 hrs by Western blot analysis; format: functional, cell-based; settings: dose 1-2 µM
NIH3T3 [8] = experiment: Inhibition of myofibroblast activation in TGF-beta1-induced EMT in mouse NIH3T3 cells assessed as decrease in MMP2 level at 1 to 2 uM incubated for 48 hrs by Western blot analysis; format: functional, cell-based; settings: dose 1-2 µM
NIH3T3 [9] = experiment: Inhibition of myofibroblast activation in TGF-beta1-induced EMT in mouse NIH3T3 cells assessed as decrease in vimentin level at 1 to 2 uM incubated for 48 hrs by Western blot analysis; format: functional, cell-based; settings: dose 1-2 µM
NIH3T3 [10] = experiment: Inhibition of myofibroblast activation in TGF-beta1-induced EMT in mouse NIH3T3 cells assessed as decrease in fibronectin mRNA level at 1 to 2 uM incubated for 48 hrs by qPCR analysis; format: functional, cell-based; settings: dose 1-2 µM
NIH3T3 [11] = experiment: Inhibition of myofibroblast activation in TGF-beta1-induced EMT in mouse NIH3T3 cells assessed as decrease in collagen I mRNA level at 1 to 2 uM incubated for 48 hrs by qPCR analysis; format: functional, cell-based; settings: dose 1-2 µM
NIH3T3 [12] = experiment: Inhibition of myofibroblast activation in TGF-beta1-induced EMT in mouse NIH3T3 cells assessed as decrease in vimentin mRNA level at 1 to 2 uM incubated for 48 hrs by qPCR analysis; format: functional, cell-based; settings: dose 1-2 µM
HK-2 [13] = experiment: Inhibition of myofibroblast activation in TGF-beta1-induced EMT in human HK-2 cells assessed as decrease in fibronectin level at 1 to 10 uM incubated for 24 hrs by Western blot analysis; format: functional, cell-based; settings: dose 1-10 µM
HK-2 [14] = experiment: Inhibition of myofibroblast activation in TGF-beta1-induced EMT in human HK-2 cells assessed as decrease in alpha-SMA level at 1 to 10 uM incubated for 24 hrs by Western blot analysis; format: functional, cell-based; settings: dose 1-10 µM
HK-2 [15] = experiment: Inhibition of myofibroblast activation in TGF-beta1-induced EMT in human HK-2 cells assessed as decrease in vimentin level at 1 to 5 uM incubated for 24 hrs by Western blot analysis; format: functional, cell-based; settings: dose 1-5 µM
HK-2 [16] = experiment: Inhibition of myofibroblast activation in TGF-beta1-induced EMT in human HK-2 cells assessed as increase in E-cadherin level at 1 to 5 uM incubated for 24 hrs by Western blot analysis; format: functional, cell-based; settings: dose 1-5 µM
HK-2 [17] = experiment: Inhibition of myofibroblast activation in TGF-beta1-induced EMT in human HK-2 cells assessed as decrease in FN-1 mRNA level at 1 to 5 uM incubated for 24 hrs by qPCR analysis; format: functional, cell-based; settings: dose 1-5 µM
HK-2 [18] = experiment: Inhibition of myofibroblast activation in TGF-beta1-induced EMT in human HK-2 cells assessed as decrease in COL1A1 mRNA level at 1 to 5 uM incubated for 24 hrs by qPCR analysis; format: functional, cell-based; settings: dose 1-5 µM
HK-2 [19] = experiment: Inhibition of myofibroblast activation in TGF-beta1-induced EMT in human HK-2 cells assessed as decrease in MMP2 mRNA level at 1 to 5 uM incubated for 24 hrs by qPCR analysis; format: functional, cell-based; settings: dose 1-5 µM
HK-2 [20] = experiment: Inhibition of myofibroblast activation in TGF-beta1-induced EMT in human HK-2 cells assessed as increase in CDH-1 mRNA level at 1 to 5 uM incubated for 24 hrs by qPCR analysis; format: functional, cell-based; settings: dose 1-5 µM
HK-2 [21] = experiment: Inhibition of myofibroblast activation in TGF-beta1-induced EMT in human HK-2 cells assessed as decrease in ACTA2 mRNA level at 1 to 5 uM incubated for 24 hrs by qPCR analysis; format: functional, cell-based; settings: dose 1-5 µM
Mus musculus [22] = experiment: Anti-fibrotic activity in C57BL/6J mouse model of unilateral ureteral obstruction assessed as decrease in collagen I level at 0.25 mg/kg, ip administered every day for 7 days by Western blot analysis; format: functional, organism-based; settings: time 7.0 day
Mus musculus [23] = experiment: Anti-fibrotic activity in C57BL/6J mouse model of unilateral ureteral obstruction assessed as decrease in vimentin level at 0.25 mg/kg, ip administered every day for 7 days by Western blot analysis; format: functional, organism-based; settings: time 7.0 day
Mus musculus [24] = experiment: Anti-fibrotic activity in C57BL/6J mouse model of unilateral ureteral obstruction assessed as decrease in fibronectin mRNA level at 0.25 mg/kg, ip administered every day for 7 days by qPCR analysis; format: functional, organism-based; settings: time 7.0 day
Mus musculus [25] = experiment: Anti-fibrotic activity in C57BL/6J mouse model of unilateral ureteral obstruction assessed as decrease in collagen I mRNA level at 0.25 mg/kg, ip administered every day for 7 days by qPCR analysis; format: functional, organism-based; settings: time 7.0 day
Mus musculus [26] = experiment: Anti-fibrotic activity in C57BL/6J mouse model of unilateral ureteral obstruction assessed as decrease in MMP2 mRNA level at 0.25 mg/kg, ip administered every day for 7 days by qPCR analysis; format: functional, organism-based; settings: time 7.0 day
Mus musculus [27] = experiment: Anti-fibrotic activity in C57BL/6J mouse model of unilateral ureteral obstruction assessed as decrease in yellowish appearance of kidney at 0.05 to 1.25 mg/kg, ip administered every day for 7 days; format: functional, organism-based; settings: dose 0.05-1.25 mg/kg, time 7.0 day
Mus musculus [28] = experiment: Anti-fibrotic activity in C57BL/6J mouse model of unilateral ureteral obstruction assessed as decrease in kidney inflammation at 0.05 to 1.25 mg/kg, ip administered every day for 7 days; format: functional, organism-based; settings: dose 0.05-1.25 mg/kg, time 7.0 day
Mus musculus [29] = experiment: Anti-fibrotic activity in C57BL/6J mouse model of unilateral ureteral obstruction assessed as decrease in kidney fibrosis at 0.05 to 1.25 mg/kg, ip administered every day for 7 days; format: functional, organism-based; settings: dose 0.05-1.25 mg/kg, time 7.0 day
Mus musculus [30] = experiment: Anti-fibrotic activity in C57BL/6J mouse model of unilateral ureteral obstruction assessed as decrease in renal inflammation at 0.05 to 1.25 mg/kg, ip administered every day for 7 days by H and E staining based analysis; format: functional, organism-based; settings: dose 0.05-1.25 mg/kg, time 7.0 day
Mus musculus [31] = experiment: Anti-fibrotic activity in C57BL/6J mouse model of unilateral ureteral obstruction assessed as decrease in renal fibrosis at 0.05 to 1.25 mg/kg, ip administered every day for 7 days by H and E staining based analysis; format: functional, organism-based; settings: dose 0.05-1.25 mg/kg, time 7.0 day
Mus musculus [32] = experiment: Anti-fibrotic activity in C57BL/6J mouse model of unilateral ureteral obstruction assessed as decrease in renal fibronectin […] level administered intraperitoneally every day for 7 days by IHC analysis; format: functional, organism-based; settings: dose 0.05-1.25 mg/kg, route ip, time 7.0 day

For `CCCCCCCCCCCC(=O)N[C@H](CC(=O)O)C(=O)N[C@@H](Cc1c[nH]cn1)C(=O)N[C@@H](CC(N)=O)C(=O)N[C@H]1CSCCCCCCSC[C@@H](C(N)=O)NC(=O)[C@@H](C)NC(=O)[C@H](CCC(N)=O)NC(=O)[C@@H]2CCCN2C1=O`, the half-life [1] was 27 h, the inhibition (NIH3T3 [2]) was “Active” and the half-life [3] was 1.08 h. The clearance [4] was 0.467 mL/min, the MRT [5] was 0.337 h and the Kd (Albumin) was 10.6 µM. The inhibition (NIH3T3 [6]) was “Active; No Further Enhancement In Antifibrotic Activity Was Observed At Concentrations Above 2 Î¼M”, the inhibition (NIH3T3 [7]) was “Active” and the inhibition (NIH3T3 [8]) was “Active”. The inhibition (NIH3T3 [9]) was “Active”, the inhibition (NIH3T3 [10]) was “Active” and the inhibition (NIH3T3 [11]) was “Active”. For the same molecule, the inhibition (NIH3T3 [12]) was “Active”, the inhibition (HK-2 [13]) was “Active; No Additional Suppression Observed At Concentrations Above 5 Î¼M” and the inhibition (HK-2 [14]) was “Active; No Additional Suppression Observed At Concentrations Above 5 Î¼M”. The inhibition (HK-2 [15]) was “Active”, the inhibition (HK-2 [16]) was “Active” and the inhibition (HK-2 [17]) was “Active”. For the same molecule, the inhibition (HK-2 [18]) was “Active”, the inhibition (HK-2 [19]) was “Active” and the inhibition (HK-2 [20]) was “Active”. For the same molecule, the inhibition (HK-2 [21]) was “Active”, the Activity (Mus musculus [22]) was “Active” and the Activity (Mus musculus [23]) was “Active”. The Activity (Mus musculus [24]) was “Active”, the Activity (Mus musculus [25]) was “Active” and the Activity (Mus musculus [26]) was “Active”. For the same molecule, the Activity (Mus musculus [27]) was “Active”, the Activity (Mus musculus [28]) was “Active” and the Activity (Mus musculus [29]) was “Active”. The Activity (Mus musculus [30]) was “Active”, the Activity (Mus musculus [31]) was “Active” and the Activity (Mus musculus [32]) was “Dose-dependent-effect”.
